Assay results reported in patent US12304890B2, “R-type pyridyloxycarboxylic acid, salt and ester derivative thereof, and preparation method therefor, and herbicidal composition and application thereof” (Qingdao Kingagroot Chemical Compound Co., Ltd., priority 2018, dated 2025).

How the values were obtained:
Type in all cases: in vivo
Echinochloa crusgalli = test: Post-emergence test experiment, Echinochloa crusgalli; conditions: 1000 g a.i./ha, 3 weeks in greenhouse, fresh weight inhibition
Summary of the method: (§1)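 Greenhouse-grown plants sprayed at the 2-3 leaf stage, 2 weeks after sowing, with compound in acetone/tween-80 diluted in water plus 1.5 L/ha methyl oleate emulsifiable concentrate as synergist. Effect scored 3 weeks later as fresh weight inhibition rate.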

[1] = test system: Monocotyledonous and dicotyledonous weed seeds and main crop seeds; test: Post-emergence test experiment, other weeds and crops (Table 4, 1000 g a.i./ha); conditions: 3 weeks in greenhouse, fresh weight inhibition
Summary of the method: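 Weed and crop seeds (wheat, corn, rice, soybean, cotton, oilseed, millet, sorghum) sown in soil pots in a greenhouse and sprayed at 2-3 leaf stage, 2 weeks after sowing. Compound in acetone/tween-80 with methyl oleate concentrate (1.5 L/ha) as synergist. Effect recorded as fresh-weight growth inhibition rate.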

Digitaria sanguinalis = test: Post-emergence test experiment, Digitaria sanguinalis; conditions: 1000 g a.i./ha, 3 weeks in greenhouse, fresh weight inhibition
Summary of the method: as §1

| Structure (SMILES) | Activity level (growth inhibition rate), Echinochloa crusgalli (Echinochloa crusgalli) | Activity level (growth inhibition rate), Abutilon theophrasti Medic. [1] | Activity level (growth inhibition rate), Galium aparine [1] | Activity level (growth inhibition rate), Monochoria Vaginalis [1] | Activity level (growth inhibition rate), Digitaria sanguinalis (Digitaria sanguinalis) |
| --- | --- | --- | --- | --- | --- |
| CC(C)CCCOC(=O)[C@@H](C)Oc1nc(F)c(Cl)c(N)c1Cl [Compound 2-107] | 5 (Level 5: the growth inhibition rate is greater than 85%) | 5 (Level 5: the growth inhibition rate is greater than 85%) | 5 (Level 5: the growth inhibition rate is greater than 85%) | 5 (Level 5: the growth inhibition rate is greater than 85%) | 5 (Level 5: the growth inhibition rate is greater than 85%) |
| CC(C)CCCSC(=O)[C@@H](C)Oc1nc(F)c(Cl)c(N)c1Cl [Compound 2-108] | 5 (Level 5: the growth inhibition rate is greater than 85%) | 5 (Level 5: the growth inhibition rate is greater than 85%) | 5 (Level 5: the growth inhibition rate is greater than 85%) | 5 (Level 5: the growth inhibition rate is greater than 85%) | 5 (Level 5: the growth inhibition rate is greater than 85%) |
| CCCCC(C)SC(=O)[C@@H](C)Oc1nc(F)c(Cl)c(N)c1Cl (some centres unmarked) [Compound 2-114] | 5 (Level 5: the growth inhibition rate is greater than 85%) | 5 (Level 5: the growth inhibition rate is greater than 85%) | 5 (Level 5: the growth inhibition rate is greater than 85%) | 5 (Level 5: the growth inhibition rate is greater than 85%) | 5 (Level 5: the growth inhibition rate is greater than 85%) |
| CCCCCCCSC(=O)[C@@H](C)Oc1nc(F)c(Cl)c(N)c1Cl [Compound 2-122] | 5 (Level 5: the growth inhibition rate is greater than 85%) | 5 (Level 5: the growth inhibition rate is greater than 85%) | 5 (Level 5: the growth inhibition rate is greater than 85%) | 5 (Level 5: the growth inhibition rate is greater than 85%) | 5 (Level 5: the growth inhibition rate is greater than 85%) |
| CCCCCCCCOC(=O)[C@@H](C)Oc1nc(F)c(Cl)c(N)c1Cl [Compound 2-155] | 5 (Level 5: the growth inhibition rate is greater than 85%) | 5 (Level 5: the growth inhibition rate is greater than 85%) | 5 (Level 5: the growth inhibition rate is greater than 85%) | 5 (Level 5: the growth inhibition rate is greater than 85%) | 5 (Level 5: the growth inhibition rate is greater than 85%) |
| CCCCCCCCSC(=O)[C@@H](C)Oc1nc(F)c(Cl)c(N)c1Cl [Compound 2-156] | 5 (Level 5: the growth inhibition rate is greater than 85%) | 5 (Level 5: the growth inhibition rate is greater than 85%) | 5 (Level 5: the growth inhibition rate is greater than 85%) | 5 (Level 5: the growth inhibition rate is greater than 85%) | 5 (Level 5: the growth inhibition rate is greater than 85%) |
| CCCCC(CC)COC(=O)[C@@H](C)Oc1nc(F)c(Cl)c(N)c1Cl (some centres unmarked) [Compound 2-157] | 5 (Level 5: the growth inhibition rate is greater than 85%) | 5 (Level 5: the growth inhibition rate is greater than 85%) | 5 (Level 5: the growth inhibition rate is greater than 85%) | 5 (Level 5: the growth inhibition rate is greater than 85%) | 5 (Level 5: the growth inhibition rate is greater than 85%) |
| CCCCC(CC)CSC(=O)[C@@H](C)Oc1nc(F)c(Cl)c(N)c1Cl (some centres unmarked) [Compound 2-158] | 5 (Level 5: the growth inhibition rate is greater than 85%) | 5 (Level 5: the growth inhibition rate is greater than 85%) | 5 (Level 5: the growth inhibition rate is greater than 85%) | 5 (Level 5: the growth inhibition rate is greater than 85%) | 5 (Level 5: the growth inhibition rate is greater than 85%) |
| CC(C)CCCCCOC(=O)[C@@H](C)Oc1nc(F)c(Cl)c(N)c1Cl [Compound 2-159] | 5 (Level 5: the growth inhibition rate is greater than 85%) | 5 (Level 5: the growth inhibition rate is greater than 85%) | 5 (Level 5: the growth inhibition rate is greater than 85%) | 5 (Level 5: the growth inhibition rate is greater than 85%) | 5 (Level 5: the growth inhibition rate is greater than 85%) |
| CC(C)CCCCCSC(=O)[C@@H](C)Oc1nc(F)c(Cl)c(N)c1Cl [Compound 2-160] | 5 (Level 5: the growth inhibition rate is greater than 85%) | 5 (Level 5: the growth inhibition rate is greater than 85%) | 5 (Level 5: the growth inhibition rate is greater than 85%) | 5 (Level 5: the growth inhibition rate is greater than 85%) | 5 (Level 5: the growth inhibition rate is greater than 85%) |
| CCCCCCC(C)OC(=O)[C@@H](C)Oc1nc(F)c(Cl)c(N)c1Cl (some centres unmarked) [Compound 2-163] | 5 (Level 5: the growth inhibition rate is greater than 85%) | 5 (Level 5: the growth inhibition rate is greater than 85%) | 5 (Level 5: the growth inhibition rate is greater than 85%) | 5 (Level 5: the growth inhibition rate is greater than 85%) | 5 (Level 5: the growth inhibition rate is greater than 85%) |
| CCCCCCC(C)SC(=O)[C@@H](C)Oc1nc(F)c(Cl)c(N)c1Cl (some centres unmarked) [Compound 2-164] | 5 (Level 5: the growth inhibition rate is greater than 85%) | 5 (Level 5: the growth inhibition rate is greater than 85%) | 5 (Level 5: the growth inhibition rate is greater than 85%) | 5 (Level 5: the growth inhibition rate is greater than 85%) | 5 (Level 5: the growth inhibition rate is greater than 85%) |
| CCCCCCCCCOC(=O)[C@@H](C)Oc1nc(F)c(Cl)c(N)c1Cl [Compound 2-175] | 5 (Level 5: the growth inhibition rate is greater than 85%) | 5 (Level 5: the growth inhibition rate is greater than 85%) | 5 (Level 5: the growth inhibition rate is greater than 85%) | 5 (Level 5: the growth inhibition rate is greater than 85%) | 5 (Level 5: the growth inhibition rate is greater than 85%) |
| CCCCCCCCCSC(=O)[C@@H](C)Oc1nc(F)c(Cl)c(N)c1Cl [Compound 2-176] | 5 (Level 5: the growth inhibition rate is greater than 85%) | 5 (Level 5: the growth inhibition rate is greater than 85%) | 5 (Level 5: the growth inhibition rate is greater than 85%) | 5 (Level 5: the growth inhibition rate is greater than 85%) | 5 (Level 5: the growth inhibition rate is greater than 85%) |
| CCCCCCCCCCSC(=O)[C@@H](C)Oc1nc(F)c(Cl)c(N)c1Cl [Compound 2-196] | 5 (Level 5: the growth inhibition rate is greater than 85%) | 5 (Level 5: the growth inhibition rate is greater than 85%) | 5 (Level 5: the growth inhibition rate is greater than 85%) | 5 (Level 5: the growth inhibition rate is greater than 85%) | 5 (Level 5: the growth inhibition rate is greater than 85%) |
| CCCCCCCCCCCSC(=O)[C@@H](C)Oc1nc(F)c(Cl)c(N)c1Cl [Compound 2-216] | 5 (Level 5: the growth inhibition rate is greater than 85%) | 5 (Level 5: the growth inhibition rate is greater than 85%) | 5 (Level 5: the growth inhibition rate is greater than 85%) | 5 (Level 5: the growth inhibition rate is greater than 85%) | 5 (Level 5: the growth inhibition rate is greater than 85%) |
